Here are results for ten molecules from ChEMBL document CHEMBL2429842, “Phthaloyl amino acids as anti-inflammatory and immunomodulatory prototypes” (Med Chem Res, 2013).

The test system of data set [1] is MDA-MB-435. Put plainly: Antiproliferative activity against human MDA-MB-435 cells at 25 ug/ml after 48 hrs by MTT assay. Format: functional. The conditions noted are these: MDA-MB-435, 48 h.
The test system of data set [2] is Splenocyte. Put plainly: Immunomodulatory activity in BALB/c mouse splenocytes assessed as inhibition of LPS-induced nitric oxide production at 50 ug/ml after 72 hrs by Griess method relative to control. It is filed as functional. On the technique in general: Nitrite, measured by Griess reagent, commonly stands in for NO production.
Data set [3] can be described thus: Cytotoxicity against BALB/c mouse splenocytes assessed as highest nontoxic concentration after 24 hrs by [3H]-thymidine incorporation assay. It is filed as cell-based, Splenocyte. Particulars: read-out: Activity. (In general: Incorporation of labelled thymidine or its analogues reports DNA synthesis.)
Data set [4] deals with SF-295. Put plainly: Antiproliferative activity against human SF295 cells at 25 ug/ml after 48 hrs by MTT assay. It is filed as functional. Particulars: SF-295, 48 h.
Data set [5] concerns Mus musculus. Put plainly: Antiinflammatory activity in carrageenan-induced air pouch mouse model assessed as inhibition of leukocyte migration from blood circulation into air pouches at 100 mg/kg, po administered 1 hr before carrageenan challenge measured after 6 hrs relative to control. It is filed as functional.
In data set [6] the test system is Splenocyte. Put plainly: Immunomodulatory activity in BALB/c mouse splenocytes assessed as inhibition of LPS-induced nitric oxide production at 25 ug/ml after 72 hrs by Griess method relative to control. It is filed as functional.
Data set [7] can be described thus: Cytotoxicity against BALB/c mouse splenocytes assessed as cell viability after 24 hrs by [3H]-thymidine incorporation assay. Format: cell-based, Splenocyte. Also on record: concentration or dose not given beside the values. Particulars: read-out: Activity.
The subject of data set [8] is HCT-8. Put plainly: Antiproliferative activity against human HCT8 cells at 25 ug/ml after 48 hrs by MTT assay. Format: functional. Particulars: HCT-8, 48 h. On the technique in general: Tetrazolium assays rely on reduction of a dye to a coloured formazan, in cell work by metabolically active cells.
The test system of data set [9] is Mus musculus. Put plainly: Immunomodulatory activity in carrageenan-induced air pouch mouse model assessed as reduction of nitric oxide production in air pouch at 10 mg/kg, po by Griess method. Format: functional, organism-based. Also on record: dose 10 mg/kg.
Data set [10] deals with Mus musculus. The experiment in a line: Antiinflammatory activity in carrageenan-induced air pouch mouse model assessed as inhibition of leukocyte migration from blood circulation into air pouches at 10 mg/kg, po administered 1 hr before carrageenan challenge measured after 6 hrs relative to control. It is filed as functional.
Data set [11] has as its system Peritoneal macrophage cell. The experiment in a line: Immunomodulatory activity mouse peritoneal macrophages assessed as inhibition of LPS-induced IL-1beta production at 50 uM after 24 hrs by ELISA. It is filed as functional, cell-based.
Data set [12] relates to Peritoneal macrophage cell. Put plainly: Immunomodulatory activity mouse peritoneal macrophages assessed as inhibition of LPS-induced TNFalpha production at 50 uM after 24 hrs by ELISA. It is filed as functional, cell-based.

Calls of active or inactive are those of the source. The calls are words filed in the database; no cut-off is given here.

Turning to `O=C(O)CCN1C(=O)c2ccccc2C1=O`, the inhibition at 25 µg/mL was -3.71% in data set [1], 12.6% in [4] and 18.9% in [8]. Further, the results for the Activity in data set [2] and in data set [6] were 4.4 µg/mL and 3.6 µg/mL, respectively. In data set [3], the MNTC at 24 h came out at 50 µg/mL. Besides, in data set [5], the inhibition in vivo at 100 mg/kg turned out to be 54.2%. For the same molecule, the viability at 24 h in data set [7] is 22.2%.

As to `O=C(O)CC[C@@H](C(=O)O)N1C(=O)c2ccccc2C1=O`, the inhibition at 25 µg/mL was 12.9% in [1], 14.4% in [4] and 6.52% in data set [8]. Besides, the Activity was determined as 3.4 µg/mL in [2] and 2.9 µg/mL in data set [6]. Also, the MNTC at 24 h in [3] was found to be 50 µg/mL. The inhibition in vivo at 100 mg/kg in [5] was 61.7%. The viability at 24 h in data set [7] amounted to 8.75%.

Take `C[C@@H](C(=O)O)N1C(=O)c2ccccc2C1=O`: the inhibition at 25 µg/mL in data set [1] came out at 5.01%; in data set [4], 12.2%; in [8], 6.11%. Also, the Activity in [2] came to 1.5 µg/mL; in data set [6], 2.1 µg/mL. The MNTC at 24 h in data set [3] was over 100 µg/mL. In addition, the inhibition in vivo at 100 mg/kg in data set [5] is 38.4%.

On to `O=C1CCC(N2C(=O)c3ccccc3C2=O)C(=O)N1` (centres undefined) [THALIDOMIDE], for which the Activity in data set [2] and in data set [6] was 3.6 µg/mL each time. Moreover, the outcome in [9] was Active. Also, in data set [3], the MNTC at 24 h was over 100 µg/mL. The inhibition in vivo at 100 mg/kg in data set [5] was determined as 72.1%. For the same molecule, the inhibition in vivo at 10 mg/kg in data set [10] came to 76.3%.

Take `CC[C@H](C)[C@@H](C(=O)O)N1C(=O)c2ccccc2C1=O`: the inhibition at 25 µg/mL in data set [1] was found to be 14.9%; in data set [4], 20%; in data set [8] it was 15%. Also, the Activity in [2] amounted to 2.3 µg/mL; in data set [6], 3.1 µg/mL. Further, the MNTC at 24 h in data set [3] was 12.5 µg/mL. The inhibition in vivo at 100 mg/kg in data set [5] was determined as 67.5%. For the same molecule, the viability at 24 h in data set [7] was found to be 26.1%. Moreover, the inhibition in vivo at 10 mg/kg in data set [10] was found to be 64.7%.

With `O=C(O)[C@H](Cc1ccccc1)N1C(=O)c2ccccc2C1=O`, the inhibition at 25 µg/mL in data set [1] was 11.7%; in data set [4] it was 13.5%; in data set [8], -7.23%. For the same molecule, the Activity in data set [2] came to 0.7 µg/mL; in data set [6], 2.3 µg/mL. The MNTC at 24 h in [3] was found to be 25 µg/mL. Besides, in [5], the inhibition in vivo at 100 mg/kg is 64.2%. For the same molecule, in data set [11], the inhibition entry was “Active”. In addition, the viability at 24 h in data set [7] came out at 21.5%.

`O=C(O)[C@H](Cc1c[nH]c2ccccc12)N1C(=O)c2ccccc2C1=O`: the inhibition at 25 µg/mL is 13.8% in [1], 24.5% in data set [4] and 10.4% in data set [8]. In addition, the Activity in data set [2] came to 2.1 µg/mL; in [6], 1.3 µg/mL. Further, the result in [9] was Active. The MNTC at 24 h in data set [3] was determined as 50 µg/mL. In data set [5], the inhibition in vivo at 100 mg/kg came out at 43.8%. Further, the inhibition entry in data set [12] and in data set [11] was “Active” each time. Moreover, the viability at 24 h in [7] was 27.6%.

In the case of `COc1cccc2c1C(=O)c1c(O)c3c(c(O)c1C2=O)C[C@@](O)(C(=O)CO)C[C@@H]3O[C@H]1C[C@H](N)[C@H](O)[C@H](C)O1` [DOXORUBICIN], the inhibition at 25 µg/mL was found to be 94.6% in data set [1], 81.4% in data set [4] and 97.1% in data set [8].

On to `O=C(O)CN1C(=O)c2ccccc2C1=O`, for which the inhibition at 25 µg/mL in [1] is -4.72%; in data set [4], 3.98%; in [8], -0.61%. The Activity in [2] amounted to 3.6 µg/mL; in data set [6], 4.2 µg/mL. The MNTC at 24 h in data set [3] stood at 50 µg/mL. Further, the inhibition in vivo at 100 mg/kg in data set [5] is 47.7%. Moreover, the inhibition result in data set [12] and in data set [11] was “Active” throughout. Besides, the viability at 24 h in [7] is 25.6%.

For the molecule `CC(C)[C@@H](C(=O)O)N1C(=O)c2ccccc2C1=O`, the inhibition at 25 µg/mL stood at 7.82% in data set [1], 2.74% in data set [4] and 4.28% in data set [8]. For the same molecule, the figures for the Activity in [2] and in data set [6] were 2.7 µg/mL and 6.4 µg/mL, respectively. Also, the MNTC at 24 h in data set [3] was 25 µg/mL. The inhibition in vivo at 100 mg/kg in [5] was 57.8%. In addition, the viability at 24 h in [7] came to 24.7%.

For orientation: inhibition means the drop in the measured response relative to a control, in per cent. For orientation: inhibition in vivo means the percentage by which the read-out fell short of the control.
